{
  "source": "ChEMBL document CHEMBL3352399",
  "about": "“Synthesis of aminoalkyl-substituted aurone derivatives as acetylcholinesterase inhibitors” (Bioorg Med Chem, 2015)",
  "data": [
    {"system": "Mus musculus", "assay": "Reversal of scopolamine-induced memory deficit in ICR mouse assessed as latency time at 0.5 mg/kg, ip administered 30 min before acquisition trial by passive avoidance test (Rvb =271.0 +/- 14.49 seconds)", "type": "functional", "details": "route intraperitoneal", "units": {"Time": "s"}, "values": [
      {"smiles": "COc1ccc(/C=C2\\Oc3cc(OCCN4CCCCC4)ccc3C2=O)cc1OC.Cl", "Time": 88.9}
    ]},
    {"biological_target": "T1, Acetylcholinesterase (Mus musculus, UniProt P21836)", "T1 sequence (P21836 whole entry)": "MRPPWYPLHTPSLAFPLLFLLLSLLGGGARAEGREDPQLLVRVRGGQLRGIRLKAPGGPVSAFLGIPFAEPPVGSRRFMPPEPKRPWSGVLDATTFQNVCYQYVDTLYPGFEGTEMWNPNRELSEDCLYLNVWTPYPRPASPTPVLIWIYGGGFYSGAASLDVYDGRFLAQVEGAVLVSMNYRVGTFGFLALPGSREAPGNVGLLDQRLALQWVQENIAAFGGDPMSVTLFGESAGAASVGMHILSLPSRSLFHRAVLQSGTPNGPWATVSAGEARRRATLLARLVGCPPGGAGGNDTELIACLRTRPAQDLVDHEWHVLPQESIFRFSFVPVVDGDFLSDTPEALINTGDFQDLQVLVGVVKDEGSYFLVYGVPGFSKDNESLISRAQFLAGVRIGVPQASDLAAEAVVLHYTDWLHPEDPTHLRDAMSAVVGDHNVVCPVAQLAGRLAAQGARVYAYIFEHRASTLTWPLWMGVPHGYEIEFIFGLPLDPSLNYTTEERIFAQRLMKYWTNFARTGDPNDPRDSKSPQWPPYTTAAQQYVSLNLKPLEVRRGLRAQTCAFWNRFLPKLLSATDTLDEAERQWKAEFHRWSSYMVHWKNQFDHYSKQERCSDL", "details": "not given", "units": {"IC50": "nM"}, "values": [
      {"smiles": "O=C1/C(=C/c2ccc(O)cc2)Oc2cc(OCCN3CCCCC3)ccc21", "IC50": 13500},
      {"smiles": "COc1ccccc1/C=C1\\Oc2cc(OCCCN3CCCC3)ccc2C1=O", "IC50": 5930},
      {"smiles": "COc1ccc(/C=C2\\Oc3cc(OCCCN4CCCC4)ccc3C2=O)c(OC)c1", "IC50": 1660},
      {"smiles": "COc1ccc(OC)c(/C=C2\\Oc3cc(OCCCN4CCCC4)ccc3C2=O)c1", "IC50": 4740},
      {"smiles": "COc1cccc(/C=C2\\Oc3cc(OCCCN4CCCCC4)ccc3C2=O)c1", "IC50": 750},
      {"smiles": "COc1ccc(/C=C2\\Oc3cc(OCCN4CCCC4)ccc3C2=O)c(OC)c1OC", "IC50": 13700},
      {"smiles": "COc1ccc(/C=C2\\Oc3cc(OCCCCN4CCCCC4)ccc3C2=O)cc1OC", "IC50": 1520},
      {"smiles": "COc1ccccc1/C=C1\\Oc2cc(OCCN3CCCCC3)ccc2C1=O", "IC50": 2520},
      {"smiles": "COc1cccc(/C=C2\\Oc3cc(OCCN4CCCC4)ccc3C2=O)c1", "IC50": 1610},
      {"smiles": "CCN(CC)CCOc1ccc2c(c1)O/C(=C\\c1ccc(O)cc1)C2=O", "IC50": 35500},
      {"smiles": "COc1cc(/C=C2\\Oc3cc(OCCN4CCCCC4)ccc3C2=O)cc(OC)c1OC", "IC50": 1120},
      {"smiles": "COc1ccc(/C=C2\\Oc3cc(OCCN4CCCC4)ccc3C2=O)cc1", "IC50": 2380},
      {"smiles": "COc1ccc(/C=C2\\Oc3cc(OCCCN4CCCC4)ccc3C2=O)cc1OC", "IC50": 1030},
      {"smiles": "O=C1/C(=C/c2ccc(O)c(O)c2)Oc2cc(O)ccc21", "note": "[SULFURETIN]", "IC50": 699000},
      {"smiles": "COc1ccc(/C=C2\\Oc3cc(OCCN4CCCCC4)ccc3C2=O)cc1", "IC50": 900},
      {"smiles": "COc1cccc(/C=C2\\Oc3cc(OCCN4CCCC4)ccc3C2=O)c1OC", "IC50": 990},
      {"smiles": "COc1ccc(/C=C2\\Oc3cc(OCCCN4CCCC4)ccc3C2=O)cc1", "IC50": 3310},
      {"smiles": "COc1cc(/C=C2\\Oc3cc(OCCN4CCCC4)ccc3C2=O)cc(OC)c1", "IC50": 4810},
      {"smiles": "COc1cccc(/C=C2\\Oc3cc(OCCN4CCCCC4)ccc3C2=O)c1", "IC50": 1150},
      {"smiles": "COc1ccc(/C=C2\\Oc3cc(OCCN4CCCC4)ccc3C2=O)c(OC)c1", "IC50": 1610},
      {"smiles": "COc1cccc(/C=C2\\Oc3cc(OCCCN4CCCC4)ccc3C2=O)c1OC", "IC50": 1050},
      {"smiles": "O=C1/C(=C/c2ccc(O)cc2)Oc2cc(OCCN3CCOCC3)ccc21", "IC50": 186000},
      {"smiles": "COc1ccc(/C=C2\\Oc3cc(OCCN4CCCCC4)ccc3C2=O)cc1OC.Cl", "IC50": 400},
      {"smiles": "COc1ccc(/C=C2\\Oc3cc(OCCCN4CCCCC4)ccc3C2=O)cc1OC", "IC50": 890},
      {"smiles": "O=C1/C(=C/c2ccc(O)cc2)Oc2cc(OCCN3CCCC3)ccc21", "IC50": 11100},
      {"smiles": "COc1cc(/C=C2\\Oc3cc(OCCN4CCCC4)ccc3C2=O)cc(OC)c1OC", "IC50": 1560},
      {"smiles": "COc1ccc(/C=C2\\Oc3cc(OCCN4CCCC4)ccc3C2=O)cc1OC", "IC50": 750},
      {"smiles": "COc1cc(/C=C2\\Oc3cc(OCCCN4CCCC4)ccc3C2=O)cc(OC)c1", "IC50": 4630},
      {"smiles": "COc1cccc(/C=C2\\Oc3cc(OCCCN4CCCC4)ccc3C2=O)c1", "IC50": 4200},
      {"smiles": "COc1ccccc1/C=C1\\Oc2cc(OCCN3CCCC3)ccc2C1=O", "IC50": 2870},
      {"smiles": "COc1ccc(/C=C2\\Oc3cc(OCCCCCN4CCCCC4)ccc3C2=O)cc1OC", "IC50": 1260},
      {"smiles": "COc1ccc(OC)c(/C=C2\\Oc3cc(OCCN4CCCC4)ccc3C2=O)c1", "IC50": 1490}
    ]},
    {"system": "Mus musculus", "assay": "Reversal of scopolamine-induced memory deficit in ICR mouse assessed as latency time at 2 mg/kg, po administered 30 min before acquisition trial by passive avoidance test (Rvb =271.0 +/- 14.49 seconds)", "type": "functional", "details": "not given", "units": {"Time": "s"}, "values": [
      {"smiles": "COc1ccc(/C=C2\\Oc3cc(OCCN4CCCCC4)ccc3C2=O)cc1OC.Cl", "Time": 222.4}
    ]},
    {"system": "Mus musculus", "assay": "Reversal of scopolamine-induced memory deficit in ICR mouse assessed as latency time at 1 mg/kg, po administered 30 min before acquisition trial by passive avoidance test (Rvb =271.0 +/- 14.49 seconds)", "type": "functional", "details": "not given", "units": {"Time": "s"}, "values": [
      {"smiles": "COc1ccc2c3c1O[C@H]1C[C@@H](O)C=C[C@@]31CCN(C)C2", "note": "[GALANTAMINE]", "Time": 212.2},
      {"smiles": "COc1ccc(/C=C2\\Oc3cc(OCCN4CCCCC4)ccc3C2=O)cc1OC.Cl", "Time": 242.5}
    ]},
    {"system": "Mus musculus", "assay": "Toxicity in ICR mouse assessed as behavioral changes measured as latency time during acquisition trial at 0.5 to 5 mg/kg, po administered 30 min before acquisition trial by passive avoidance test", "type": "organism-based", "design": "dose 0.5-5 mg/kg, route oral", "details": "in vivo, 0.5 h", "values": [
      {"smiles": "COc1ccc(/C=C2\\Oc3cc(OCCN4CCCCC4)ccc3C2=O)cc1OC.Cl", "Activity": "Non-toxic"}
    ]},
    {"system": "Mus musculus", "assay": "Reversal of scopolamine-induced memory deficit in ICR mouse assessed as latency time at 5 mg/kg, po administered 30 min before acquisition trial by passive avoidance test (Rvb =271.0 +/- 14.49 seconds)", "type": "functional", "details": "not given", "units": {"Time": "s"}, "values": [
      {"smiles": "COc1ccc(/C=C2\\Oc3cc(OCCN4CCCCC4)ccc3C2=O)cc1OC.Cl", "Time": 206.8}
    ]}
  ]
}
